Literature values in US7452901B2, “Anti-cancer phosphonate analogs” (Gilead Sciences, Inc., priority 2003, dated 2008).
pIC50: −log10 of the molar value.

Biological target: T1, purine nucleotide phosphorylase (Homo sapiens, UniProt P00491)
T1 sequence (P00491 1-289): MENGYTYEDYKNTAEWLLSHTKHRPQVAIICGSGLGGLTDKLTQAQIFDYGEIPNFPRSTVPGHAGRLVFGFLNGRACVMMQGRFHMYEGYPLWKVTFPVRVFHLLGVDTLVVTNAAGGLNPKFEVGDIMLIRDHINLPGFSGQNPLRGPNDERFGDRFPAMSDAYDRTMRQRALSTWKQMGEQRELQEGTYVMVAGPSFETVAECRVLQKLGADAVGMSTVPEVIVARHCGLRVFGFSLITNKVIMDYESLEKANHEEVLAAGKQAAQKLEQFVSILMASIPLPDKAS
Details: disclosed at the ACS meeting (2000)

Compound: Nc1nc2c([C@@H](CO)c3ccccc3F)c[nH]c2c(=O)[nH]1 [PNP-405]
- pIC50: 7.70
